We go through five molecules from patent US12691086B2, “Methods of treating systemic sclerosis and idiopathic pulmonary fibrosis” (HORIZON THERAPEUTICS IRELAND DAC, priority 2022, dated 2026).

The test system of data set [1] is idiopathic pulmonary fibrosis. As to conditions: Palmer et al. Chest 2018; cited from earlier work.
Data set [2] can be described thus: Solubility of the different polymorphs in phosphate buffer. It counts as physicochemical. As to conditions: for equilibrium solubility relative to Form 1: 24 hours; for solubility, concentration versus time: pH 7.4 phosphate buffer, 25° C. The protocol:
The solubility of the different polymorphs was determined at pH 7.4 in phosphate buffer at 25° C. Samples were analyzed as a function of time for each form to determine the equilibrium values. The residual solids from each sample were analyzed to verify that the form was unchanged during the experiment. The concentration (mg/mL) versus time data is listed below for each form: […]

Data set [3] in a line: Dynamic Vapor Sorption (DVS). It counts as physicochemical. The protocol: Moisture sorption/desorption isotherms are recorded on a DVS-1 from SURFACE MEASUREMENT SYSTEMS. Two cycles are run at 25° C., in which the Relative Humidity (RH) is stepped from 0 to 95% and back to 0%. The data is evaluated with the software DVSWin V. 2.15.
A short description of data set [4]: Physical stability of solid state forms, examined by FTIR. It counts as physicochemical. As to conditions: 80° C./75% RH, 1 week (7 days), open glass vials. The protocol: The physical stability of Forms 1, 2, and 3 was investigated at 80° C./75% RH in order to determine if interconversion was observed. The samples were examined by FTIR after stressing 1 week in open glass vials.

Values after ≈ are worked out from the molar mass of the structure shown.

With `Cc1noc(-c2ccc(-c3ccc(C4(C(=O)O)CC4)cc3)cc2)c1NC(=O)O[C@H](C)c1ccccc1` [BMS-986020], in data set [1], the “rate of decline in forced vital capacity (FVC) compared with placebo” value is “significantly slowed”.
As for `COc1ccc(C(=O)NC2(C(=O)O)Cc3ccccc3C2)cc1OCCc1cccc(C)c1` [Form 4, 2-(4-methoxy-3-(3-methylphenethoxy)benzamido)-2,3-dihydro-1H-indene-2-carboxylic acid], in data set [2], the “equilibrium solubility relative to Form 1” value was “more than double”. Moreover, the figures for the “solubility, concentration versus time” value in data set [2] (1 hr), in data set [2] (2 hr) and in data set [2] (3 hr) were 79 µg/mL (≈ 177 µM), 89 µg/mL (≈ 200 µM) and 105 µg/mL (≈ 236 µM), respectively.
Take `COc1ccc(C(=O)NC2(C(=O)O)Cc3ccccc3C2)cc1OCCc1cccc(C)c1` [Form 1, 2-(4-methoxy-3-(3-methylphenethoxy)benzamido)-2,3-dihydro-1H-indene-2-carboxylic acid]: the “solubility, concentration versus time” value in data set [2] (1 hr) was found to be 42 µg/mL (≈ 94.3 µM); in data set [2] (2 hr) it was 41 µg/mL (≈ 92 µM); in data set [2] (3 hr) it was 42 µg/mL (≈ 94.3 µM). Besides, the Reversible water uptake entry in data set [3] (25° C.) is recorded as “less than 1%”; in data set [3] (between 0 and 95% RH) it was ~ −0.1 % w/w. Besides, the “changes in FTIR spectrum (physical stability, interconversion)” value (shortened to “changes in FTIR spectrum”) in data set [4] was “unchanged FTIR”.
In the case of `COc1ccc(C(=O)NC2(C(=O)O)Cc3ccccc3C2)cc1OCCc1cccc(C)c1` [Form 3, 2-(4-methoxy-3-(3-methylphenethoxy)benzamido)-2,3-dihydro-1H-indene-2-carboxylic acid], the “equilibrium solubility relative to Form 1” value in data set [2] is recorded as “more than double”. In addition, the “solubility, concentration versus time” value came out at 83 µg/mL (≈ 186 µM) in data set [2] (1 hr), 93 µg/mL (≈ 209 µM) in data set [2] (2 hr) and 95 µg/mL (≈ 213 µM) in data set [2] (3 hr). The “changes in FTIR spectrum” value in data set [4] is reported as “unchanged FTIR”.
On to `COc1ccc(C(=O)NC2(C(=O)O)Cc3ccccc3C2)cc1OCCc1cccc(C)c1` [Form 2, 2-(4-methoxy-3-(3-methylphenethoxy)benzamido)-2,3-dihydro-1H-indene-2-carboxylic acid], for which, in data set [2] (24 hour), the “24 hour solubility result, greater than Form 1” value is “more than 30%”. Moreover, the “solubility, concentration versus time” value stood at 34 µg/mL (≈ 76.3 µM) in data set [2] (1 hr), 39 µg/mL (≈ 87.5 µM) in data set [2] (2 hr) and 43 µg/mL (≈ 96.5 µM) in data set [2] (3 hr). Also, the “changes in FTIR spectrum” value in data set [4] was “unchanged FTIR”.
